{
  "source": "patent US6716881B2",
  "about": "“Carbanilides used as pesticides” (Bayer Aktiengesellschaft, priority 1996, dated 2004)",
  "data": [
    {"tested_on": "Coniophora puteana", "assay": "Inhibitory test with giant colonies of Basidiomycetes (Coniophora puteana)", "assay_type": "cell-based", "conditions": "1 ppm in agar, after 3 or 7 days at 26° C., vs untreated control", "description": "(§1) Inhibitory Test with Giant Colonies of Basidiomycetes.\n(§2) To produce a suitable preparation of active compound, 0.2 parts by weight of active compound are admixed with 99.8 parts by weight of the abovementioned solvent.\n(§3) An agar which has been prepared using malt extract peptone is mixed in the liquid state with the preparation of active compound at the particular desired application rate. After the agar has set, the resulting nutrient medium is incubated at 26° C. with pieces of mycelium which had been punched out of colonies of Coniophora puteana or Coriolus versicolor.\n(§4) Evaluation is carried out after 3 or 7 days' storage at 26° C. by measuring the growth of the hypha and scoring the resulting inhibition in percent in comparison to the untreated control. 0% means an inhibition of growth which corresponds to that of the untreated control, while an inhibition of growth of 100% means that no growth of the hypha is observed.", "units": {"Inhibition of the growth of the hypha in % with Coniophora puteana at an active compound concentration of 1 ppm": "%"}, "values": [
      {"molecule": "Cc1nn(C)c(Cl)c1C(=O)Nc1ccccc1CSc1ccc(Cl)cc1", "note": "[Example 84]", "Inhibition of the growth of the hypha in % with Coniophora puteana at an active compound concentration of 1 ppm": 80},
      {"molecule": "Cc1ccc(OCc2ccccc2NC(=O)c2cn(C)nc2C(F)F)cc1", "note": "[Example 119]", "Inhibition of the growth of the hypha in % with Coniophora puteana at an active compound concentration of 1 ppm": 100},
      {"molecule": "CC1=C(C(=O)Nc2ccccc2COc2ccccc2C)SCCO1", "note": "[Example 144]", "Inhibition of the growth of the hypha in % with Coniophora puteana at an active compound concentration of 1 ppm": 70},
      {"molecule": "Cc1nc(C(F)(F)F)c(C(=O)Nc2ccccc2CSc2ccccc2)s1", "note": "[Example 40]", "Inhibition of the growth of the hypha in % with Coniophora puteana at an active compound concentration of 1 ppm": 50},
      {"molecule": "Cc1cccc(OCc2ccccc2NC(=O)c2cn(C)nc2C(F)F)c1", "note": "[Example 139]", "Inhibition of the growth of the hypha in % with Coniophora puteana at an active compound concentration of 1 ppm": 100},
      {"molecule": "CC1=C(C(=O)Nc2ccccc2COc2ccccc2)SCCO1", "note": "[Example 141]", "Inhibition of the growth of the hypha in % with Coniophora puteana at an active compound concentration of 1 ppm": 80},
      {"molecule": "Cc1nn(C)cc1C(=O)Nc1ccccc1C=Cc1ccccc1", "note": "[Example 18]", "Inhibition of the growth of the hypha in % with Coniophora puteana at an active compound concentration of 1 ppm": 70},
      {"molecule": "CC1=C(C(=O)Nc2ccccc2COc2cccc(C)c2)SCCO1", "note": "[Example 142]", "Inhibition of the growth of the hypha in % with Coniophora puteana at an active compound concentration of 1 ppm": 70}
    ]},
    {"tested_on": "Coniophora puteana", "assay": "Inhibitory test with giant colonies of Basidiomycetes (Coniophora puteana)", "assay_type": "cell-based", "conditions": "3 ppm in agar, after 3 or 7 days at 26° C., vs untreated control", "description": "as §1, §2, §3, §4", "units": {"Inhibition of the growth of the hypha in % with Coniophora puteana at an active compound concentration of 3 ppm": "%"}, "values": [
      {"molecule": "Cc1nn(C)c(Cl)c1C(=O)Nc1ccccc1CSc1ccc(Cl)cc1", "note": "[Example 84]", "Inhibition of the growth of the hypha in % with Coniophora puteana at an active compound concentration of 3 ppm": 80},
      {"molecule": "Cc1ccc(OCc2ccccc2NC(=O)c2cn(C)nc2C(F)F)cc1", "note": "[Example 119]", "Inhibition of the growth of the hypha in % with Coniophora puteana at an active compound concentration of 3 ppm": 100},
      {"molecule": "CC1=C(C(=O)Nc2ccccc2COc2ccccc2C)SCCO1", "note": "[Example 144]", "Inhibition of the growth of the hypha in % with Coniophora puteana at an active compound concentration of 3 ppm": 90},
      {"molecule": "Cc1nc(C(F)(F)F)c(C(=O)Nc2ccccc2CSc2ccccc2)s1", "note": "[Example 40]", "Inhibition of the growth of the hypha in % with Coniophora puteana at an active compound concentration of 3 ppm": 60},
      {"molecule": "Cc1cccc(OCc2ccccc2NC(=O)c2cn(C)nc2C(F)F)c1", "note": "[Example 139]", "Inhibition of the growth of the hypha in % with Coniophora puteana at an active compound concentration of 3 ppm": 100},
      {"molecule": "CC1=C(C(=O)Nc2ccccc2COc2ccccc2)SCCO1", "note": "[Example 141]", "Inhibition of the growth of the hypha in % with Coniophora puteana at an active compound concentration of 3 ppm": 100},
      {"molecule": "Cc1nn(C)cc1C(=O)Nc1ccccc1C=Cc1ccccc1", "note": "[Example 18]", "Inhibition of the growth of the hypha in % with Coniophora puteana at an active compound concentration of 3 ppm": 100},
      {"molecule": "CC1=C(C(=O)Nc2ccccc2COc2cccc(C)c2)SCCO1", "note": "[Example 142]", "Inhibition of the growth of the hypha in % with Coniophora puteana at an active compound concentration of 3 ppm": 90}
    ]},
    {"tested_on": "Coniophora puteana", "assay": "Inhibitory test with giant colonies of Basidiomycetes (Coniophora puteana)", "assay_type": "cell-based", "conditions": "6 ppm in agar, after 3 or 7 days at 26° C., vs untreated control", "description": "as §1, §2, §3, §4", "units": {"Inhibition of the growth of the hypha in % with Coniophora puteana at an active compound concentration of 6 ppm": "%"}, "values": [
      {"molecule": "Cc1nn(C)c(Cl)c1C(=O)Nc1ccccc1CSc1ccc(Cl)cc1", "note": "[Example 84]", "Inhibition of the growth of the hypha in % with Coniophora puteana at an active compound concentration of 6 ppm": 100},
      {"molecule": "Cc1ccc(OCc2ccccc2NC(=O)c2cn(C)nc2C(F)F)cc1", "note": "[Example 119]", "Inhibition of the growth of the hypha in % with Coniophora puteana at an active compound concentration of 6 ppm": 100},
      {"molecule": "CC1=C(C(=O)Nc2ccccc2COc2ccccc2C)SCCO1", "note": "[Example 144]", "Inhibition of the growth of the hypha in % with Coniophora puteana at an active compound concentration of 6 ppm": 100},
      {"molecule": "Cc1nc(C(F)(F)F)c(C(=O)Nc2ccccc2CSc2ccccc2)s1", "note": "[Example 40]", "Inhibition of the growth of the hypha in % with Coniophora puteana at an active compound concentration of 6 ppm": 70},
      {"molecule": "Cc1cccc(OCc2ccccc2NC(=O)c2cn(C)nc2C(F)F)c1", "note": "[Example 139]", "Inhibition of the growth of the hypha in % with Coniophora puteana at an active compound concentration of 6 ppm": 100},
      {"molecule": "CC1=C(C(=O)Nc2ccccc2COc2ccccc2)SCCO1", "note": "[Example 141]", "Inhibition of the growth of the hypha in % with Coniophora puteana at an active compound concentration of 6 ppm": 100},
      {"molecule": "Cc1nn(C)cc1C(=O)Nc1ccccc1C=Cc1ccccc1", "note": "[Example 18]", "Inhibition of the growth of the hypha in % with Coniophora puteana at an active compound concentration of 6 ppm": 100},
      {"molecule": "CC1=C(C(=O)Nc2ccccc2COc2cccc(C)c2)SCCO1", "note": "[Example 142]", "Inhibition of the growth of the hypha in % with Coniophora puteana at an active compound concentration of 6 ppm": 100}
    ]},
    {"tested_on": "Coriolus versicolor", "assay": "Inhibitory test with giant colonies of Basidiomycetes (Coriolus versicolor)", "assay_type": "cell-based", "conditions": "1 ppm in agar, after 3 or 7 days at 26° C., vs untreated control", "description": "as §1, §2, §3, §4", "units": {"Inhibition of the growth of the hypha in % with Coriolus versicolor at an active compound concentration of 1 ppm": "%"}, "values": [
      {"molecule": "Cc1nn(C)c(Cl)c1C(=O)Nc1ccccc1CSc1ccc(Cl)cc1", "note": "[Example 84]", "Inhibition of the growth of the hypha in % with Coriolus versicolor at an active compound concentration of 1 ppm": 90},
      {"molecule": "Cc1ccc(OCc2ccccc2NC(=O)c2cn(C)nc2C(F)F)cc1", "note": "[Example 119]", "Inhibition of the growth of the hypha in % with Coriolus versicolor at an active compound concentration of 1 ppm": 100},
      {"molecule": "CC1=C(C(=O)Nc2ccccc2COc2ccccc2C)SCCO1", "note": "[Example 144]", "Inhibition of the growth of the hypha in % with Coriolus versicolor at an active compound concentration of 1 ppm": 90},
      {"molecule": "Cc1nc(C(F)(F)F)c(C(=O)Nc2ccccc2CSc2ccccc2)s1", "note": "[Example 40]", "Inhibition of the growth of the hypha in % with Coriolus versicolor at an active compound concentration of 1 ppm": 40},
      {"molecule": "Cc1cccc(OCc2ccccc2NC(=O)c2cn(C)nc2C(F)F)c1", "note": "[Example 139]", "Inhibition of the growth of the hypha in % with Coriolus versicolor at an active compound concentration of 1 ppm": 100},
      {"molecule": "CC1=C(C(=O)Nc2ccccc2COc2ccccc2)SCCO1", "note": "[Example 141]", "Inhibition of the growth of the hypha in % with Coriolus versicolor at an active compound concentration of 1 ppm": 90},
      {"molecule": "Cc1nn(C)cc1C(=O)Nc1ccccc1C=Cc1ccccc1", "note": "[Example 18]", "Inhibition of the growth of the hypha in % with Coriolus versicolor at an active compound concentration of 1 ppm": 70},
      {"molecule": "CC1=C(C(=O)Nc2ccccc2COc2cccc(C)c2)SCCO1", "note": "[Example 142]", "Inhibition of the growth of the hypha in % with Coriolus versicolor at an active compound concentration of 1 ppm": 90}
    ]},
    {"tested_on": "Coriolus versicolor", "assay": "Inhibitory test with giant colonies of Basidiomycetes (Coriolus versicolor)", "assay_type": "cell-based", "conditions": "3 ppm in agar, after 3 or 7 days at 26° C., vs untreated control", "description": "as §1, §2, §3, §4", "units": {"Inhibition of the growth of the hypha in % with Coriolus versicolor at an active compound concentration of 3 ppm": "%"}, "values": [
      {"molecule": "Cc1nn(C)c(Cl)c1C(=O)Nc1ccccc1CSc1ccc(Cl)cc1", "note": "[Example 84]", "Inhibition of the growth of the hypha in % with Coriolus versicolor at an active compound concentration of 3 ppm": 100},
      {"molecule": "Cc1ccc(OCc2ccccc2NC(=O)c2cn(C)nc2C(F)F)cc1", "note": "[Example 119]", "Inhibition of the growth of the hypha in % with Coriolus versicolor at an active compound concentration of 3 ppm": 100},
      {"molecule": "CC1=C(C(=O)Nc2ccccc2COc2ccccc2C)SCCO1", "note": "[Example 144]", "Inhibition of the growth of the hypha in % with Coriolus versicolor at an active compound concentration of 3 ppm": 100},
      {"molecule": "Cc1nc(C(F)(F)F)c(C(=O)Nc2ccccc2CSc2ccccc2)s1", "note": "[Example 40]", "Inhibition of the growth of the hypha in % with Coriolus versicolor at an active compound concentration of 3 ppm": 70},
      {"molecule": "Cc1cccc(OCc2ccccc2NC(=O)c2cn(C)nc2C(F)F)c1", "note": "[Example 139]", "Inhibition of the growth of the hypha in % with Coriolus versicolor at an active compound concentration of 3 ppm": 100},
      {"molecule": "CC1=C(C(=O)Nc2ccccc2COc2ccccc2)SCCO1", "note": "[Example 141]", "Inhibition of the growth of the hypha in % with Coriolus versicolor at an active compound concentration of 3 ppm": 100},
      {"molecule": "Cc1nn(C)cc1C(=O)Nc1ccccc1C=Cc1ccccc1", "note": "[Example 18]", "Inhibition of the growth of the hypha in % with Coriolus versicolor at an active compound concentration of 3 ppm": 100},
      {"molecule": "CC1=C(C(=O)Nc2ccccc2COc2cccc(C)c2)SCCO1", "note": "[Example 142]", "Inhibition of the growth of the hypha in % with Coriolus versicolor at an active compound concentration of 3 ppm": 90}
    ]},
    {"tested_on": "Coriolus versicolor", "assay": "Inhibitory test with giant colonies of Basidiomycetes (Coriolus versicolor)", "assay_type": "cell-based", "conditions": "6 ppm in agar, after 3 or 7 days at 26° C., vs untreated control", "description": "as §1, §2, §3, §4", "units": {"Inhibition of the growth of the hypha in % with Coriolus versicolor at an active compound concentration of 6 ppm": "%"}, "values": [
      {"molecule": "Cc1nn(C)c(Cl)c1C(=O)Nc1ccccc1CSc1ccc(Cl)cc1", "note": "[Example 84]", "Inhibition of the growth of the hypha in % with Coriolus versicolor at an active compound concentration of 6 ppm": 100},
      {"molecule": "Cc1ccc(OCc2ccccc2NC(=O)c2cn(C)nc2C(F)F)cc1", "note": "[Example 119]", "Inhibition of the growth of the hypha in % with Coriolus versicolor at an active compound concentration of 6 ppm": 100},
      {"molecule": "CC1=C(C(=O)Nc2ccccc2COc2ccccc2C)SCCO1", "note": "[Example 144]", "Inhibition of the growth of the hypha in % with Coriolus versicolor at an active compound concentration of 6 ppm": 100},
      {"molecule": "Cc1nc(C(F)(F)F)c(C(=O)Nc2ccccc2CSc2ccccc2)s1", "note": "[Example 40]", "Inhibition of the growth of the hypha in % with Coriolus versicolor at an active compound concentration of 6 ppm": 90},
      {"molecule": "Cc1cccc(OCc2ccccc2NC(=O)c2cn(C)nc2C(F)F)c1", "note": "[Example 139]", "Inhibition of the growth of the hypha in % with Coriolus versicolor at an active compound concentration of 6 ppm": 100},
      {"molecule": "CC1=C(C(=O)Nc2ccccc2COc2ccccc2)SCCO1", "note": "[Example 141]", "Inhibition of the growth of the hypha in % with Coriolus versicolor at an active compound concentration of 6 ppm": 100},
      {"molecule": "Cc1nn(C)cc1C(=O)Nc1ccccc1C=Cc1ccccc1", "note": "[Example 18]", "Inhibition of the growth of the hypha in % with Coriolus versicolor at an active compound concentration of 6 ppm": 100},
      {"molecule": "CC1=C(C(=O)Nc2ccccc2COc2cccc(C)c2)SCCO1", "note": "[Example 142]", "Inhibition of the growth of the hypha in % with Coriolus versicolor at an active compound concentration of 6 ppm": 100}
    ]}
  ]
}
